This is an account of results in US20230144436A1, “MUSCLE TARGETING COMPLEXES AND USES THEREOF FOR TREATING MYOTONIC DYSTROPHY” (Dyne Therapeutics, Inc., priority 2020, published 2023).

This data set relates to DMPK. The data set can be described thus: DMPK knockdown by transfected antisense oligonucleotides in DM1 C15 myotubes at 0.5 nM and 50 nM. In kind it is cell-based. As to conditions: 72 hours; for Normalized DMPK Remaining: relative to vehicle control = 1.00. The gist of the method:
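DMPK remaining was measured by qPCR 72 h post-transfection, normalized to lipofectamine-only vehicle wells (=1.00). Oligonucleotides were delivered at 0.5 and 50 nM final to DM1 C15 myoblasts differentiated seven days into myotubes, in triplicate.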

The mark [1] stands for this setting: 0.5 nM oligonucleotide, qPCR, relative to vehicle control.
The mark [2] stands for this setting: 50 nM oligonucleotide, qPCR, relative to vehicle control.

Turning to “406 (ACAGGUAGUUCUCAUCCUGG; chemistry not given here) [compound 406]”, the “Percent DMPK Reduction” value by setting is: (0.5 nM oligonucleotide) 20.51%; (50 nM oligonucleotide) 85.36%. Further, the “Normalized DMPK Remaining” value was 0.79 (0.5 nM oligonucleotide) and 0.15 (50 nM oligonucleotide).

With “338 (CGGACGGCCCGGCUUGCUGC; chemistry not given here) [compound 338]”, the “Percent DMPK Reduction” value reads like this: under setting [1], 5.42%; under setting [2], 30.41%. In addition, the “Normalized DMPK Remaining” value is, setting by setting: (0.5 nM oligonucleotide, qPCR) 0.95; (50 nM oligonucleotide, qPCR) 0.70.

Turning to “430 (GUCUAUGGCCAUGACAAUCU; chemistry not given here) [compound 430]”, the “Percent DMPK Reduction” value (0.5 nM oligonucleotide) is -11.00% and the “Percent DMPK Reduction” value (50 nM oligonucleotide) is 73.11%. In addition, the “Normalized DMPK Remaining” value (0.5 nM oligonucleotide) amounted to 1.11 and the “Normalized DMPK Remaining” value (50 nM oligonucleotide) turned out to be 0.27.

As for “358 (GUGUCCGGAAGUCGCCUGCU; chemistry not given here) [compound 358]”, the “Percent DMPK Reduction” value under setting [1] stood at 22.99% and the “Percent DMPK Reduction” value under setting [2] came to 73.65%. Also, the “Normalized DMPK Remaining” value is on record as 0.77 (0.5 nM oligonucleotide, qPCR) and 0.26 (50 nM oligonucleotide, qPCR).

“454 (GCAGAGAGAGGUGCUCCUUG; chemistry not given here) [compound 454]”: for the setting “0.5 nM oligonucleotide”, the “Percent DMPK Reduction” value is 17.29% and the “Normalized DMPK Remaining” value was 0.83. Besides, for the setting “50 nM oligonucleotide”, the “Percent DMPK Reduction” value is 85.95% and the “Normalized DMPK Remaining” value worked out at 0.14.

As for “363 (CAUGACCAGGUACAGGUAGU; chemistry not given here) [compound 363]”, the “Percent DMPK Reduction” value reads like this: under setting [1], 19.39%; under setting [2], 59.09%. The “Normalized DMPK Remaining” value stood at 0.81 (0.5 nM oligonucleotide, qPCR) and 0.41 (50 nM oligonucleotide, qPCR).

In the case of “371 (GUGGAAUCCGCGUAGAAGGG; chemistry not given here) [compound 371]”, the “Percent DMPK Reduction” value is, setting by setting: under setting [1], 30.55%; under setting [2], 49.34%. The “Normalized DMPK Remaining” value is, setting by setting: (0.5 nM oligonucleotide, qPCR) 0.69; (50 nM oligonucleotide, qPCR) 0.51.

“440 (CAGGAGCAGGGAAAGCGCCU; chemistry not given here) [compound 440]”: the “Percent DMPK Reduction” value reads like this: (0.5 nM oligonucleotide) 12.48%; (50 nM oligonucleotide) 51.82%. Also, the “Normalized DMPK Remaining” value turned out to be 0.88 (0.5 nM oligonucleotide) and 0.48 (50 nM oligonucleotide).

For the substance “466 (GUCCAGCAGGAUGUGUCGG; chemistry not given here) [compound 466]”, the “Percent DMPK Reduction” value (0.5 nM oligonucleotide) is recorded as 30.00% and the “Percent DMPK Reduction” value (50 nM oligonucleotide) is reported as 82.64%. Moreover, the “Normalized DMPK Remaining” value runs as follows: (0.5 nM oligonucleotide) 0.70; (50 nM oligonucleotide) 0.17.

“415 (AGGGCCUUUUAUUCGCGAGG; chemistry not given here) [compound 415]”: where the note is “0.5 nM oligonucleotide”, the “Percent DMPK Reduction” value stood at 13.63% and the “Normalized DMPK Remaining” value came out at 0.86. Besides, under “50 nM oligonucleotide”, the “Percent DMPK Reduction” value stood at 66.43% and the “Normalized DMPK Remaining” value amounted to 0.34.

Regarding “341 (AGGGCGUCUGCCCAUAGAAC; chemistry not given here) [compound 341]”, the “Percent DMPK Reduction” value was 13.23% under setting [1] and 58.98% under setting [2]. Further, the “Normalized DMPK Remaining” value is 0.87 (0.5 nM oligonucleotide, qPCR) and 0.41 (50 nM oligonucleotide, qPCR).

Regarding “398 (ACGUGUGCCUCUAGGUCCCG; chemistry not given here) [compound 398]”, the “Percent DMPK Reduction” value runs as follows: (0.5 nM oligonucleotide) 16.47%; (50 nM oligonucleotide) 77.73%. The “Normalized DMPK Remaining” value reads like this: (0.5 nM oligonucleotide) 0.84; (50 nM oligonucleotide) 0.22.

For “378 (GGAUGUUGUCGGGUUUGAUG; chemistry not given here) [compound 378]”, where the note is “0.5 nM oligonucleotide”, the “Percent DMPK Reduction” value was found to be 4.26% and the “Normalized DMPK Remaining” value amounted to 0.96. For the same substance, where the note is “50 nM oligonucleotide”, the “Percent DMPK Reduction” value was found to be 40.81% and the “Normalized DMPK Remaining” value was found to be 0.59.

With “437 (CAUCCGCUCCUGCAACUGCC; chemistry not given here) [compound 437]”, for the setting “0.5 nM oligonucleotide”, the “Percent DMPK Reduction” value is given as 21.04% and the “Normalized DMPK Remaining” value is recorded as 0.79. Besides, where the note is “50 nM oligonucleotide”, the “Percent DMPK Reduction” value is 76.81% and the “Normalized DMPK Remaining” value came out at 0.23.

For the substance “472 (AAGGGAUGUGUCCGGAAGUC; chemistry not given here) [compound 472]”, the “Percent DMPK Reduction” value is recorded as 10.37% (0.5 nM oligonucleotide) and 73.52% (50 nM oligonucleotide). The “Normalized DMPK Remaining” value was found to be 0.90 (0.5 nM oligonucleotide) and 0.26 (50 nM oligonucleotide).

In the case of “457 (GGGCCUUUUAUUCGCGAGGG; chemistry not given here) [compound 457]”, for the setting “0.5 nM oligonucleotide”, the “Percent DMPK Reduction” value was determined as 5.11% and the “Normalized DMPK Remaining” value was 0.95. For the setting “50 nM oligonucleotide”, the “Percent DMPK Reduction” value came out at 50.65% and the “Normalized DMPK Remaining” value worked out at 0.49.

Turning to “447 (CAUCCAAAACGUGGAUUGGG; chemistry not given here) [compound 447]”, the “Percent DMPK Reduction” value by setting is: (0.5 nM oligonucleotide) 19.12%; (50 nM oligonucleotide) 77.98%. Further, the “Normalized DMPK Remaining” value runs as follows: (0.5 nM oligonucleotide) 0.81; (50 nM oligonucleotide) 0.22.

In the case of “282 (AAAGCGCCUCCGAUAGGCCA; chemistry not given here) [compound 282]”, the “Percent DMPK Reduction” value by setting is: under setting [1], 19.89%; under setting [2], 62.04%. Also, the “Normalized DMPK Remaining” value is on record as 0.80 (0.5 nM oligonucleotide, qPCR) and 0.38 (50 nM oligonucleotide, qPCR).

Consider “292 (GCCUCUGCCUCGCGUAGUUG; chemistry not given here) [compound 292]”, for which the “Percent DMPK Reduction” value under setting [1] was found to be 35.38% and the “Percent DMPK Reduction” value under setting [2] is recorded as 81.18%. For the same substance, the “Normalized DMPK Remaining” value is reported as 0.65 (0.5 nM oligonucleotide, qPCR) and 0.19 (50 nM oligonucleotide, qPCR).

As for “303 (CCGUUCCAUCUGCCCGCAGC; chemistry not given here) [compound 303]”, the “Percent DMPK Reduction” value is, setting by setting: under setting [1], 31.74%; under setting [2], 77.46%. For the same substance, the “Normalized DMPK Remaining” value amounted to 0.68 (0.5 nM oligonucleotide, qPCR) and 0.23 (50 nM oligonucleotide, qPCR).

With “410 (UACAGGUAGUUCUCAUCCUG; chemistry not given here) [compound 410]”, for the setting “0.5 nM oligonucleotide”, the “Percent DMPK Reduction” value is 19.83% and the “Normalized DMPK Remaining” value amounted to 0.80. For the same substance, for the setting “50 nM oligonucleotide”, the “Percent DMPK Reduction” value is 72.51% and the “Normalized DMPK Remaining” value is on record as 0.27.

With “470 (AUUUCAUAGGCGAAUACACC; chemistry not given here) [compound 470]”, the “Percent DMPK Reduction” value is, setting by setting: (0.5 nM oligonucleotide) -4.54%; (50 nM oligonucleotide) 44.15%. Besides, the “Normalized DMPK Remaining” value came to 1.05 (0.5 nM oligonucleotide) and 0.56 (50 nM oligonucleotide).

As to “425 (ACCAGGUACAGGUAGUUCUC; chemistry not given here) [compound 425]”, under “0.5 nM oligonucleotide”, the “Percent DMPK Reduction” value was found to be 16.09% and the “Normalized DMPK Remaining” value came out at 0.84. For the setting “50 nM oligonucleotide”, the “Percent DMPK Reduction” value came out at 76.96% and the “Normalized DMPK Remaining” value worked out at 0.23.

With “397 (GGACAGACAAUAAAUACCGA; chemistry not given here) [compound 397]”, where the note is “0.5 nM oligonucleotide”, the “Percent DMPK Reduction” value came to 22.57% and the “Normalized DMPK Remaining” value is given as 0.77. Further, for the setting “50 nM oligonucleotide”, the “Percent DMPK Reduction” value turned out to be 52.51% and the “Normalized DMPK Remaining” value is given as 0.47.
